Assay results reported in US20170217976A1, “6-(AMINO ACID)-MORPHINAN DERIVATIVES IN COMBINATION WITH PERMEATION […] FOR USE AS AN ORALLY, […], TRA[…] NASALLY AD[…]” (C[…], priority 2014, published 2017).
Where two headings read alike, the source gives them in different places.

Tests used:
[1] = target: T1, MOR (Rattus norvegicus, UniProt P33535); test: Opioid receptor binding, MOR, rat brain membranes
T1 construct: from tissue

[2] = target: T2, KOR (Cavia porcellus, UniProt P41144); test: Opioid receptor binding, KOR, guinea pig brain membranes
T2 construct: from tissue

[3] = target: T3, DOR (Rattus norvegicus, UniProt P33533); test: Opioid receptor binding, DOR, rat brain membranes
T3 construct: from tissue

[4] = Table 1-4, rat brain membranes, read-out: Binding Ki MOR
[5] = Table 1-4, guinea pig brain membranes, read-out: Binding Ki KOR
[6] = Table 1-4, rat brain membranes, read-out: Binding Ki DOR
[7] = Binding Ki (nM) MOR, in vitro binding assay, rat brain membranes
[8] = Binding Ki (nM) KOR, in vitro binding assay, guinea pig brain membranes
[9] = Binding Ki (nM) DOR, in vitro binding assay, rat brain membranes
[10] = Binding Ki MOR, Table 2-6, rat brain membranes
[11] = Binding Ki KOR, Table 2-6, guinea pig brain membranes
[12] = Binding Ki DOR, Table 2-6, rat brain membranes
[13] = Binding Ki MOR, Table 1-4, rat brain membranes
[14] = Binding Ki KOR, Table 1-4, guinea pig brain membranes
[15] = Binding Ki DOR, Table 1-4, rat brain membranes
[16] = in vitro binding assay, rat brain membranes, read-out: Binding Ki (nM) MOR
[17] = in vitro binding assay, guinea pig brain membranes, read-out: Binding Ki (nM) KOR
[18] = in vitro binding assay, rat brain membranes, read-out: Binding Ki (nM) DOR
[19] = Table 2-6, rat brain membranes, read-out: Binding Ki MOR
[20] = Table 2-6, guinea pig brain membranes, read-out: Binding Ki KOR
[21] = Table 2-6, rat brain membranes, read-out: Binding Ki DOR

T1 sequence (P33535 whole entry): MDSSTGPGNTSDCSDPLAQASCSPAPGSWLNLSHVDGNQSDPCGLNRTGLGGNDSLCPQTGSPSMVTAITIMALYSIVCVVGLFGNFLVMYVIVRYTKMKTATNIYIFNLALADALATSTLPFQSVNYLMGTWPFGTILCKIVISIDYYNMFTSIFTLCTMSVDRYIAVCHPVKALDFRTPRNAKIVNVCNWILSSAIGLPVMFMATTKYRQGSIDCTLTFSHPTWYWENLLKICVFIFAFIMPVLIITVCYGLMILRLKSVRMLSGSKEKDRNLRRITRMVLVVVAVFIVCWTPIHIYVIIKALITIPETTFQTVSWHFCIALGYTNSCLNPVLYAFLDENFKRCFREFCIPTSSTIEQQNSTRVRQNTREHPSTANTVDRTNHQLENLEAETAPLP
T3 sequence (P33533 whole entry): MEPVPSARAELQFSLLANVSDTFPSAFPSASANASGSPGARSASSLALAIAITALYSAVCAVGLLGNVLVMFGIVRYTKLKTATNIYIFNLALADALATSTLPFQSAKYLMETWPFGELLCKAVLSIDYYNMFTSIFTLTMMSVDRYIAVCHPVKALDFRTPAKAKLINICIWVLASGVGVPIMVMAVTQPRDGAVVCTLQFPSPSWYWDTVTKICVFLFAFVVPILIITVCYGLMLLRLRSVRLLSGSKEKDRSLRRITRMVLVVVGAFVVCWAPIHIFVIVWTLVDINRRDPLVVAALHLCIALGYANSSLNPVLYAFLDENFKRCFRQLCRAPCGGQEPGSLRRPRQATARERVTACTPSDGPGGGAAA
T2 sequence (P41144 whole entry): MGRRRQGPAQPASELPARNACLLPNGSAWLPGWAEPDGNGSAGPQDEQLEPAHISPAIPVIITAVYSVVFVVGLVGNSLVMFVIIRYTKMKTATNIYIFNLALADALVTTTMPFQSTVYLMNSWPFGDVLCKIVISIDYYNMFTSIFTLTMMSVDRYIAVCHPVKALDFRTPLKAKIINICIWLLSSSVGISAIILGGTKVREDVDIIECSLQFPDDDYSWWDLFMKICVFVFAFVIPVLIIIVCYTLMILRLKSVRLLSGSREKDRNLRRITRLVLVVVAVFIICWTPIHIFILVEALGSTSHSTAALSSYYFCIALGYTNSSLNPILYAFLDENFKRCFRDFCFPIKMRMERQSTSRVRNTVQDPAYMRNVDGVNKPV

CC(NC1CCC2(O)C3Cc4ccc(O)c5c4C2(CCN3C)C1O5)C(=O)O (stereo not drawn) [Compound 13]
Ki [1, 4]: 3 nM
Ki [2, 5]: 710 nM
Ki [3, 6]: 170 nM

CCOC(=O)CN[C@H]1CC[C@@]2(OC)[C@H]3Cc4ccc(O)c5c4[C@@]2(CCN3C)[C@H]1O5 [HS730-Et ester]
Ki [1, 7]: 0.28 nM
Ki [2, 8]: 8.57 nM
Ki [3, 9]: 0.96 nM

CO[C@@]12CC[C@H](N[C@@H](CCC(N)=O)C(=O)OC(C)(C)C)[C@@H]3Oc4c(O)ccc5c4[C@@]31CCN(C)[C@@H]2C5 [17-t-Bu ester]
Ki [1, 7]: 0.18 nM
Ki [2, 8]: 8.97 nM
Ki [3, 9]: 0.18 nM

CC(C)(C)OC(=O)[C@H](Cc1ccccc1)N[C@H]1CC[C@@]2(O)[C@H]3Cc4ccc(O)c5c4[C@@]2(CCN3CC2CC2)[C@H]1O5 [59-tBu ester]
Ki [1, 10]: 1 nM
Ki [2, 11]: 5 nM
Ki [3, 12]: 2.15 nM

C[C@H](N[C@@H]1CC[C@@]2(O)[C@H]3Cc4ccc(O)c5c4[C@@]2(CCN3C)[C@H]1O5)C(=O)O [Compound 14]
Ki [1, 13]: 11 nM
Ki [2, 14]: 542 nM
Ki [3, 15]: 78.7 nM

CO[C@@]12CC[C@H](NCC(=O)OCc3ccccc3)[C@@H]3Oc4c(O)ccc5c4[C@@]31CCN(C)[C@@H]2C5 [HS730-benzyl ester]
Ki [1, 7]: 0.19 nM
Ki [2, 8]: 0.47 nM
Ki [3, 9]: 0.91 nM

COC12CCC(NC(C)C(=O)O)C3Oc4c(O)ccc5c4C31CCN(C)C2C5 (single isomer, unassigned) [Compound 54]
Ki [2, 14]: 142 nM
Ki [3, 15]: 11.3 nM

CO[C@@]12CC[C@H](N[C@@H](Cc3ccccc3)C(=O)O)[C@@H]3Oc4c(O)ccc5c4[C@@]31CCN(CC1CC1)[C@@H]2C5 [Compound 57]
Ki [1, 10]: 0.51 nM
Ki [2, 11]: 4.21 nM
Ki [3, 12]: 1.17 nM

CO[C@@]12CC[C@H](N[C@@H](CCCCN)C(=O)OC(C)(C)C)[C@@H]3Oc4c(O)ccc5c4[C@@]31CCN(C)[C@@H]2C5 [38-t-Bu ester]
Ki [1, 16]: 0.17 nM
Ki [2, 17]: 0.89 nM
Ki [3, 18]: 0.092 nM

CCCCCCCCOC(=O)CN[C@H]1CC[C@@]2(OC)[C@H]3Cc4ccc(O)c5c4[C@@]2(CCN3C)[C@H]1O5 [HS730-nOc ester]
Ki [1, 16]: 1.29 nM
Ki [2, 17]: 2.97 nM
Ki [3, 18]: 3.23 nM

CCC(C)C(NC1CCC2(OC)C3Cc4ccc(O)c5c4C2(CCN3C)C1O5)C(=O)OC(C)(C)C (single isomer, unassigned) [42-t-Bu ester]
Ki [1, 7]: 1.04 nM
Ki [2, 8]: 29.2 nM
Ki [3, 9]: 1 nM

O=C(O)CN[C@H]1CC[C@@]2(O)[C@H]3Cc4ccc(O)c5c4[C@@]2(CCN3CC2CC2)[C@H]1O5 [Compound 67]
Ki ([1]; Binding Ki MOR, Table 1-6, rat brain membranes): 0.88 nM
Ki ([2]; Binding Ki KOR, Table 1-6, guinea pig brain membranes): 2.81 nM
Ki ([3]; Binding Ki DOR, Table 1-6, rat brain membranes): 13.1 nM

COC12CCC(NC(C)C(=O)O)C3Oc4c(O)ccc5c4C31CCN(C)C2C5 (single isomer, unassigned) [Compound 1]
Ki [2, 8]: 142 nM
Ki [2, 14]: 142 nM
Ki [3, 9]: 26.9 nM
Ki [3, 15]: 26.9 nM

CO[C@@]12CC[C@@H](N[C@H](C(=O)OC(C)(C)C)[C@@H](C)O)[C@@H]3Oc4c(O)ccc5c4[C@@]31CCN(C)[C@@H]2C5 [35-t-Bu ester]
Ki [1, 7]: 0.51 nM
Ki [2, 8]: 102 nM
Ki [3, 9]: 0.65 nM

CCO[C@@]12CC[C@H](NCC(=O)OC(C)(C)C)[C@@H]3Oc4c(O)ccc5c4[C@@]31CCN(C)[C@@H]2C5 [5-t-Bu ester]
Ki [1, 7]: 0.2 nM
Ki [2, 8]: 15 nM
Ki [3, 9]: 0.31 nM

CO[C@@]12CC[C@@H](NCCC(=O)OC(C)(C)C)[C@@H]3Oc4c(O)ccc5c4[C@@]31CCN(CC1CC1)[C@@H]2C5 [64-tBu ester]
Ki [1, 10]: 1.52 nM
Ki [2, 11]: 2.13 nM
Ki [3, 12]: 0.91 nM

CN1CCC23c4c5ccc(O)c4OC2C(NCC(=O)OC(C)(C)C)CCC3(OCCCc2ccccc2)C1C5 (stereo not drawn) [7-t-Bu ester]
Ki [1, 16]: 1.4 nM
Ki [2, 17]: 1.26 nM
Ki [3, 18]: 1.01 nM

CN1CC[C@]23c4c5ccc(O)c4O[C@H]2[C@H](N[C@@H](Cc2ccccc2)C(=O)O)CC[C@@]3(O)[C@H]1C5 [Compound 12]
Ki [1, 4]: 6.91 nM
Ki [2, 5]: 634 nM
Ki [3, 6]: 8.29 nM

CO[C@@]12CC[C@H](N[C@H](C(=O)OC(C)(C)C)C(C)C)[C@@H]3Oc4c(O)ccc5c4[C@@]31CCN(CC1CC1)[C@@H]2C5 [68-tBu ester]
Ki [1, 19]: 1.81 nM
Ki [2, 20]: 3.13 nM
Ki [3, 21]: 0.85 nM

CO[C@@]12CC[C@@H](N[C@@H](Cc3c[nH]c4ccccc34)C(=O)OC(C)(C)C)[C@@H]3Oc4c(O)ccc5c4[C@@]31CCN(C)[C@@H]2C5 [46-t-Bu ester]
Ki [1, 16]: 0.26 nM
Ki [2, 17]: 9.89 nM
Ki [3, 18]: 0.36 nM

CO[C@@]12CC[C@H](NCC(=O)OC(C)(C)C)[C@@H]3Oc4c(O)ccc5c4[C@@]31CCN(CC1CC1)[C@@H]2C5 [61-tBu ester]
Ki [1, 10]: 0.43 nM
Ki [2, 11]: 1.41 nM
Ki [3, 12]: 0.5 nM

CCO[C@@]12CC[C@@H](NCC(=O)O)[C@@H]3Oc4c(O)ccc5c4[C@@]31CCN(C)[C@@H]2C5 [Compound 6]
Ki [1, 7]: 0.95 nM
Ki [1, 13]: 0.95 nM
Ki [2, 8]: 102 nM
Ki [2, 14]: 102 nM
Ki [3, 9]: 5.31 nM
Ki [3, 15]: 5.31 nM

CO[C@@]12CC[C@@H](NCC(=O)OC(C)(C)C)[C@@H]3Oc4c(O)ccc5c4[C@@]31CCN(CC1CC1)[C@@H]2C5 [62-Bu ester]
Ki [1, 19]: 2.66 nM
Ki [2, 20]: 8.36 nM
Ki [3, 21]: 0.96 nM

CO[C@@]12CC[C@H](N[C@@H](CCC(N)=O)C(=O)O)[C@@H]3Oc4c(O)ccc5c4[C@@]31CCN(C)[C@@H]2C5 [Compound 17]
Ki [1, 7]: 3.24 nM
Ki [1, 13]: 3.24 nM
Ki [2, 8]: 351 nM
Ki [2, 14]: 351 nM
Ki [3, 9]: 5.13 nM
Ki [3, 15]: 5.13 nM

CCOC(=O)CNC1CCC2(OCCCc3ccccc3)C3Cc4ccc(O)c5c4C2(CCN3C)C1O5 (stereo not drawn) [8-Et ester]
Ki [1, 16]: 0.37 nM
Ki [2, 17]: 0.41 nM
Ki [3, 18]: 0.21 nM

CO[C@@]12CC[C@H](N[C@@H](CCSC)C(=O)OC(C)(C)C)[C@@H]3Oc4c(O)ccc5c4[C@@]31CCN(C)[C@@H]2C5 [23-t-Bu ester]
Ki [1, 16]: 0.32 nM
Ki [2, 17]: 10.5 nM
Ki [3, 18]: 0.12 nM

CO[C@@]12CC[C@@H](N[C@@H](Cc3ccc(O)cc3)C(=O)OC(C)(C)C)[C@@H]3Oc4c(O)ccc5c4[C@@]31CCN(C)[C@@H]2C5 [10-t-Bu ester]
Ki [1, 16]: 1.53 nM
Ki [2, 17]: 184 nM
Ki [3, 18]: 1.88 nM

CCO[C@@]12CC[C@@H](N[C@@H](Cc3ccccc3)C(=O)OC(C)(C)C)[C@@H]3Oc4c(O)ccc5c4[C@@]31CCN(CC1CC1)[C@@H]2C5 [56-tBu ester]
Ki [1, 10]: 2 nM
Ki [2, 11]: 17.9 nM
Ki [3, 12]: 6.33 nM

CO[C@@]12CC[C@@H](N[C@@H](CC(C)C)C(=O)OC(C)(C)C)[C@@H]3Oc4c(O)ccc5c4[C@@]31CCN(CC1CC1)[C@@H]2C5 [77-tBu ester]
Ki [1, 10]: 0.13 nM
Ki [2, 11]: 0.68 nM
Ki [3, 12]: 0.094 nM

CO[C@@]12CC[C@H](N[C@@H](Cc3ccc(O)cc3)C(=O)OC(C)(C)C)[C@@H]3Oc4c(O)ccc5c4[C@@]31CCN(C)[C@@H]2C5 [9-t-Bu ester]
Ki [1, 7]: 0.59 nM
Ki [2, 17]: 12.3 nM
Ki [3, 18]: 0.42 nM

CO[C@@]12CC[C@@H](N[C@@H](Cc3ccccc3)C(=O)OC(C)(C)C)[C@@H]3Oc4c(O)ccc5c4[C@@]31CCN(C)[C@@H]2C5 [4-t-Bu ester]
Ki [1, 7]: 2.56 nM
Ki [3, 18]: 2.66 nM

CO[C@@]12CC[C@H](NCC(=O)OC(C)(C)C)[C@@H]3Oc4c(O)ccc5c4[C@@]31CCN(C)[C@@H]2C5 [HS730-t-Bu ester]
Ki [2, 8]: 12.1 nM
Ki [3, 9]: 0.54 nM

CO[C@@]12CC[C@@H](N[C@@H](C)C(=O)OC(C)(C)C)[C@@H]3Oc4c(O)ccc5c4[C@@]31CCN(CC1CC1)[C@@H]2C5 [72-tBu ester]
Ki [2, 11]: 9.68 nM
Ki [3, 12]: 0.32 nM

COC12CCC(NC(C)C(=O)O)C3Oc4c(O)ccc5c4C31CCN(C)C2C5 (single isomer, unassigned) [Compound 2]
Ki [2, 8]: 63.7 nM
Ki [2, 14]: 63.7 nM
Ki [3, 9]: 7.71 nM
Ki [3, 15]: 7.71 nM

COC12CCC(NC(C)C(=O)O)C3Oc4c(O)ccc5c4C31CCN(C)C2C5 (single isomer, unassigned) [Compound 53]
Ki [2, 14]: 71.5 nM
Ki [3, 15]: 10.4 nM
